Results taken from patent publication US20040204383A1, “Lysophosphatidic acid analogs and inhibition of neointima formation” (priority 2003, published 2004).

Key:
PPARγ = experiment: Immunohistological staining for PPARγ in treated rat carotid arteries; type: in vivo; conditions: LPA 2.5 μM, 4 wk after treatment; LDL data not shown
Experimental: (§1) FIGS. 7A-D show immunohistological staining for PPARγ in rat carotid arteries. Only a few nuclei show PPARγ immunoreactivity in a carotid artery 4 wk after treatment with 2.5 μM LPA 20:0 (FIG. 7A). In contrast, the multilayered neointima elicited by LPA 20:4 expresses high levels of PPARγ immunoreactivity (FIG. 7B). Activation of PPARγ within neointima in LPA 20:4-treated carotid arteries is indicated by the strong expression of CD36 in a distribution that overlaps that of PPARγ (FIG. 7D). […] Anti-PPARγ and anti-CD36 were from Santa Cruz Biotechnology, Inc. Bars, 250 μm.
Expression of PPARγ protein was examined in rat carotid arteries exposed to lysophosphatidic acid or minimally oxidized LDL.

[1] = system: CD36(−273)-Rluc reporter gene; experiment: CD36(−273)-Rluc reporter gene (with PPRE) in CV-1 cells; type: cell-based; conditions: 10 μM, CV-1 cells (FIG. 7E)
Experimental: (§2) Therefore, the investigators compared the unique in vivo neointima-eliciting lysophosphatidic acid structure-activity relationship with that of PPARγ using an in vitro assay that utilizes an acyl-coenzyme A oxidase-luciferase (PPRE-Acox-Rluc) reporter gene construct containing a peroxisome proliferator-activated receptor response element. CV-1 cells were plated in 96-well plates (5×10^3 cells per well) in DME supplemented with 10% FBS. The next day, the cells were transiently transfected with 125 ng of pGL3-PPRE-acyl-CoA oxidase (Acox)-renilla luciferase), or 125 ng pGL3-CD36(−273), or pGL3-CD36(−261), 62.5 ng of pcDNAI-PPARγ, and 12.5 ng of pSV-β-galactosidase (Promega) using LipofectAMINE™ 2000 (Invitrogen). Twenty four hours after transfection, cells were treated with 1% FBS-supplemented OptiMEMI™ (Invitrogen) containing DMSO or test compound (10 μM) in DMSO for 20 h. Luciferase and β-galactosidase activities were measured with the Steady-Glo® Luciferase Assay System (Promega) and the Galacto-Light Plus™ System (Applied Biosystems), respectively. Samples were run in quadruplicate, and the mean±SE were calculated. Data are representative of at least three independent transfections. Student's t test was used for null hypothesis testing, and P<0.05 was considered significant.

CD36 = experiment: Immunostaining for CD36 in treated rat carotid arteries; type: in vivo; conditions: LPA 2.5 μM, 4 wk after treatment; LDL data not shown
Experimental: as §1
The scavenger receptor CD36, a PPARγ-regulated gene, contains a PPAR response element within its promoter between base pairs −273 and −261. CD36 plays a critical role in lipid uptake by binding and transporting oxidized lipids, including minimally oxidized LDL. Thus, this pathway could provide a source of ligands, such as lysophosphatidic acid, alkyl-GP, and AZ-PC, to sustain PPARγ activation. Acyl and alkyl forms of lysophosphatidic acid both accumulate in human atherosclerotic plaques. Lysophosphatidic acid activates CD36-mediated lipid uptake into macrophages through a PPARγ-PPRE-dependent mechanism.

[2] = system: CD36(−261)-Rluc reporter gene; experiment: CD36(−261)-Rluc reporter gene (deleted PPRE) in CV-1 cells; type: cell-based; conditions: 10 μM, CV-1 cells (FIG. 7E)
Experimental: as §2

[3] = system: vascular smooth muscle cells; experiment: Phenotypic modulation and dedifferentiation of cultured VSMCs (morphology, hCAD mRNA); type: cell-based, rat; conditions: for morphology of VSMCs: 1 μM for 3 days, cultures established in 2 ng/ml IGF-1
Experimental: Expression of lysophosphatidic acid-specific G protein-coupled plasma membrane receptors in rat carotid arteries was examined by RT-PCR as described earlier by Wang et al. (2002). To quantify heavy caldesmon mRNA, quantitative PCR was performed applying the real-time SYBR Green PCR method using a Sequence Detection System Model 7700 (Applied Biosystems) instrument. Rat heavy caldesmon and GAPDH (reference control mRNA)-specific primers were designed with Primer Express Software (Applied Biosystems), and forward and reverse primers were as follows: 5′-[…]-3′ (SEQ ID NO:1) and 5′-[…]-3′ (SEQ ID NO:2) for heavy caldesmon; 5′-[…]-3′ (SEQ ID NO:3) and 5′-[…]-3′ (SEQ ID NO:4) for GAPDH. Amplification reaction was performed with SYBR Green PCR Master Mix (Applied Biosystems) following the manufacturer's protocol. mRNA abundance calculation was based on Ct values as described previously (Wang et al., 2002). The expression level of heavy caldesmon mRNA was normalized to GAPDH mRNA. Each PCR reaction was performed at least three times, and the result was expressed as mean±SEM. Statistical comparison of mRNA expression was evaluated by ANOVA, and P<0.05 was considered statistically significant.
It has been reported that unsaturated lysophosphatidic acid species induced phenotypic modulation of cultured vascular smooth muscle cells (VSMCs). Because the neointimal response and PPARγ display a similar selectivity for unsaturated lysophosphatidic acid, that activation of PPARγ plays a role in the phenotypic dedifferentiation is hypothesized herein. This hypothesis was tested in a culture system in which IGF-1 maintains the differentiated spindle shape of vascular smooth muscle cells as indicated by high levels of heavy caldesmon (hCAD) mRNA expression.

rat carotid arteries = experiment: Induction of neointima formation in rat carotid artery by topical application; type: in vivo; conditions: for neointimal growth: 2.5 μM, 1 h exposure, monitored up to 8 wk (FIG. 4A)
Excerpt: Briefly, the right carotid artery of anesthetized adult male Sprague-Dawley rats (250-300 g) was surgically exposed. The caudal origin of the common carotid artery was ligated using a vessel clip, followed by exposure and ligation of the internal carotid artery above the bifurcation. The external carotid artery was exposed, and a polyethylene catheter was inserted such that it never reached the common carotid artery, thereby avoiding mechanical injury to the vessel. The clip occluding the common carotid artery was temporarily released, and the vessel was rinsed with a retrograde injection of 500 μl physiological saline to remove residual blood. The vessel was again clipped, and 100 μl of treatment solution was injected. After 60 min of incubation, the cannula was withdrawn, the external carotid artery was ligated, and blood flow was restored. Animals were allowed to recover and were killed 7-56 d later by intracardiac perfusion of 10% buffered formaldehyde (pH 7.4). The common carotid artery from the […] to the bifurcation was dissected, embedded in paraffin, and processed for histological analysis. Five μm-thick sections were cut and stained with hematoxylin and eosin or Masson's trichrome stain. Intima to media ratios were quantified using an image analysis system (Scion Image CMS-800).

LPA1 = LPA1 (Homo sapiens, UniProt Q92633); conditions: cited from earlier work
LPA2 = LPA2 (Homo sapiens, UniProt Q9HBW0); conditions: cited from earlier work
LPA3 = target: T1, LPA3 (Homo sapiens, UniProt Q9UBY5); conditions: cited from earlier work
T1 sequence (Q9UBY5 1-353): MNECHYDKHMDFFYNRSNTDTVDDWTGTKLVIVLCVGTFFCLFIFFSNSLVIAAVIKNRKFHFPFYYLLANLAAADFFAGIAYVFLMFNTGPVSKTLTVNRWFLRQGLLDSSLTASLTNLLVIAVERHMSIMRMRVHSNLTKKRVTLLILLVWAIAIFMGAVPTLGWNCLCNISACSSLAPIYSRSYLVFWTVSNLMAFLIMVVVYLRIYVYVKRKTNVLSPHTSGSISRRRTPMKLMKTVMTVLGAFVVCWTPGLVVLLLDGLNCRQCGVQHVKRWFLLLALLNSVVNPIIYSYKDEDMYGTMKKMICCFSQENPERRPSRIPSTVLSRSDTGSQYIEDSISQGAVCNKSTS

Chain of LPA1 (Q92633 whole entry, species assumed): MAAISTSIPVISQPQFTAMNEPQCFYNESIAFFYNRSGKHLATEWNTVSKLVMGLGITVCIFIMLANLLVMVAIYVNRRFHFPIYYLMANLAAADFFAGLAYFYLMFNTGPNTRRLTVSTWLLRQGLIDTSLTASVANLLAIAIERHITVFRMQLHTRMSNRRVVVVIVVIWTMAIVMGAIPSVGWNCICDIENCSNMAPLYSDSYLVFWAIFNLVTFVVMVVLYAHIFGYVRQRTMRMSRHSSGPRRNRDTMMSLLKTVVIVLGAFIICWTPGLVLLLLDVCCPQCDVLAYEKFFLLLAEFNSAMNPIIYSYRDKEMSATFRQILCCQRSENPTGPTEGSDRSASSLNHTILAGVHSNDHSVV
Chain of LPA2 (Q9HBW0 whole entry, species assumed): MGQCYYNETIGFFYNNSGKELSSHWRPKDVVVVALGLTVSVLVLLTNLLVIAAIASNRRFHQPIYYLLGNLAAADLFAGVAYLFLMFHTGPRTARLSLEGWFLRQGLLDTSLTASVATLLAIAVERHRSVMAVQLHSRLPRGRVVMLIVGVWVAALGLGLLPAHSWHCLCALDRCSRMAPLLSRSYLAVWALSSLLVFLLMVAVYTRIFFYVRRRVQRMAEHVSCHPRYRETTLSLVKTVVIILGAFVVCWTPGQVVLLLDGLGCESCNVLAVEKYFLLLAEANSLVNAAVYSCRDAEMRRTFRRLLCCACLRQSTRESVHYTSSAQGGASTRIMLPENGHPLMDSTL

SMILES | PPARγ immunoreactivity in carotid artery (PPARγ) | stimulation of CD36(−273)-Rluc reporter gene [1] | CD36 immunoreactivity in carotid artery (CD36) | stimulation of CD36(−261)-Rluc reporter gene (deleted PPRE) [2] | morphology of VSMCs [3] | decrease of hCAD mRNA expression ([3]; quantitative RT-PCR, day 5 (FIG. 8I)) | neointimal growth (rat carotid arteries) | neointima formation when delivered as BSA complexes (rat carotid arteries; Rosi 10 μM, LPA 20:4 2.5 μM, 10 μM albumin, 2 wk after treatment (FIG. 7F)) | neointima formation when delivered in rat plasma or serum (rat carotid arteries; Rosi 10 μM, LPA 20:4 2.5 μM, 2 wk after treatment (FIG. 7F)) | activity at LPA1 (LPA1) | activity at LPA2 (LPA2) | activity at LPA3 (LPA3)
CCCCC/C=C\C/C=C\C/C=C\C/C=C\CCCC(=O)OC[C@@H](O)COP(=O)(O)O [LPA 20:4] | intense PPARγ immunoreactivity | elicited significant stimulation | intense CD36 immunoreactivity | neither Rosi nor lysophosphatidic acid 20:4 activated the reporter gene | developed a fibroblast-like flattened morphology | most pronounced | elicited progressive neointimal growth | elicited neointima formation | no neointima formation was detected |  |  | 
CCCCCCCCCCCCCCCCCCCC(=O)OC[C@@H](O)COP(=O)(O)O [LPA 20:0] | only a few stained nuclei |  | no increase in immunoreactivity |  | maintained the spindle-like differentiated morphology |  | completely inactive |  |  |  |  | 
CCCCCCCCCCCCOP(=O)(O)O [fatty alcohol phosphate 12:0] |  |  |  |  |  |  |  |  |  | without any effect | specific agonist | antagonist
